# Source: PMC12617972, “Inhibition of human cytomegalovirus replication by valaciclovir” (The Journal of General Virology, 2025)
# “Also recorded” adds a separate entry of the source. Like-named read-outs stand apart in the source and are kept apart here.
# Key:
# [1] = system: HFFF cells; conditions: uninfected HFFF cells, 96 h, high and low cell numbers
# [2] = 2,000 mg/6 h; cited from earlier work
# [3] = system: SGHPL-4 cells; conditions: uninfected SGHPL-4 cells, 96 h, high and low cell numbers, 0.5% FBS
# [4] = system: HCMV strain Merlin (R1111); assay: microbe, parasite or virus in culture; format: cell-based, human cytomegalovirus; conditions: for anti-HCMV activity in HFFF cells relative to other cell lines: HFFF cells vs HFF and SGHPL-4 cells; for EC50: read-out: 50% effective dose (EC50), anti-HCMV activity
# [5] = system: HCMV; parameters: method as in PMID 32919517; conditions: high doses administered during pregnancy, clinical trial; cited from earlier work
# [6] = 2,000 mg dose; calculated with ChatGPT3 as Cmax × 1,000/molecular weight from commonly used literature Cmax values; cited from earlier work
# [7] = system: HFF cells; conditions: uninfected HFF cells, 96 h, high and low cell numbers
# [8] = system: HSV-1 strain 17+; assay: Virus yield assay, HSV in HFF cells; format: cell-based, herpes simplex virus; conditions: HFF (adult fibroblast) cells, MOI 1, 48 h post-infection
# [9] = system: uninfected cell; parameters: method as in PMID 16492567; conditions: cited from earlier work
# [10] = system: HCMV; conditions: previous studies; cited from earlier work
# [11] = HFF, HFFF and SGHPL-4 cells, MOI 1, 96 h
# [12] = Human betaherpesvirus 5, Fibroblast, 96 h
Structure (SMILES),effect on cell viability and cell division (MTT) [1],tolerability in patients [2],effect on cell viability and cell division (MTT) [3],"anti-HCMV effects compared to GCV [4, 11]","inhibition of HCMV replication in each cell line ([4]; HFF, HFFF and SGHPL-4 cells, lower drug concentration, MOI 1, 96 h)","anti-HCMV activity in HFFF cells relative to other cell lines ([4]; MOI 1, 96 h)","EC50 ([4]; Human betaherpesvirus 5, HFF (adult fibroblast) cells, MOI 1, 96 h post-infection, virus yield) [nM]",inhibition of HCMV foetal infection [5],plasma concentration [6] [µM],effect on cell viability and cell division (MTT) [7],"EC50 [4, 12] [nM]","50% effective dose (EC50), anti-HSV activity [8]",effect on uninfected cell viability in vitro [9],"difference between GCV and ACV inhibition of HCMV ([4]; found here, HFF cells)",difference between GCV and ACV anti-HCMV effects in vitro [10]
"CC(C)[C@H](N)C(=O)OCCOCn1cnc2c(=O)[nH]c(N)nc21 [VACV, valaciclovir]",no obvious effect on cell viability,"well tolerated by patients, without toxicity",no obvious effect on cell viability,less anti-HCMV effects compared to GCV,inhibitor of HCMV in all cell lines,less than in HFF and SGHPL-4 cells,3400,notable inhibition of HCMV foetal infection,35 to 40,no obvious effect on cell viability,,,,,
"Nc1nc2c(ncn2COCCO)c(=O)[nH]1 [ACV, aciclovir]",,,,less anti-HCMV effects compared to GCV,,less than in HFF and SGHPL-4 cells,,,,,2700,well below micromolar concentrations,,,
"Nc1nc(O)c2ncn(COC(CO)CO)c2n1 [GCV, ganciclovir]",,,,,,,,,,,500,well below micromolar concentrations,little or no effect,approximately fivefold difference,approximately tenfold difference; also recorded: approximately tenfold greater
